Laboratory results from PMC8449414, “Rational design of ASCT2 inhibitors using an integrated experimental-computational approach” (Proceedings of the National Academy of Sciences of the …, 2021).
Entries after “also recorded” stand apart in the source; their conditions may differ.

Tests used:
Assay in all cases: Electrophysiology: SLC1 specificity, anion current in transfected HEK293 cells
Format in all cases: cell-based
rEAAT2 = target: T1, rEAAT2 (Rattus norvegicus, UniProt P31596); details: 0 mV, 10 mM glutamate and 130 mM NaSCN internal, No current = no outward current up to highest concentration tested (§ 20-50, || 100-400, # 1500-2500 µM); for Ki: read-out: Binding affinity Ki
T1 construct: expressed in transfected cells; host or cells: HEK293 (ATCC CRL-11268), transient transfection
T1 sequence (P31596 whole entry): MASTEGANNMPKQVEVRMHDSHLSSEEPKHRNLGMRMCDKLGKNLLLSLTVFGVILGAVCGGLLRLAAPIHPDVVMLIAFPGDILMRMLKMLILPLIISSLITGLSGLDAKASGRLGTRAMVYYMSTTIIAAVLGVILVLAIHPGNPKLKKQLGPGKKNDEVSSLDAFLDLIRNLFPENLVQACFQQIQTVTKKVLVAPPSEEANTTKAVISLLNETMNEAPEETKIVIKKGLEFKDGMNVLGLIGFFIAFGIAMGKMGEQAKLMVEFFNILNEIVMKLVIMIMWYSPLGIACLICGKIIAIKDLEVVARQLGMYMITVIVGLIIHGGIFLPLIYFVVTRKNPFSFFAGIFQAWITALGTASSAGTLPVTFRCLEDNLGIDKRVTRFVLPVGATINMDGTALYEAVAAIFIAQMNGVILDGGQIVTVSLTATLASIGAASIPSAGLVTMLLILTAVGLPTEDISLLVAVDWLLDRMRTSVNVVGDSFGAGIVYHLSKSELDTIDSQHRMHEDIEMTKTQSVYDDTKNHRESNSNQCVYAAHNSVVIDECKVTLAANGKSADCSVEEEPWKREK
Experimental: (§1) We also tested the specificity of Lc-BPE for ASCT2 over other SLC1 family members (ASCT1, EAAT1-3, and EAAT5).
(§2) Fig. S3. SLC-1 specificity of Lc-BPE. (A) Electrophysiological current responses to the application of 100 µM glutamate (red trace) or varying concentrations of Lc-BPE (black, blue and red traces) to rEAAT1-expressing cells HEK293 cells. (B-C) Dose response curves obtained from currents recorded a fter application of Lc-BPE extracellularly to cells transiently expressing hASCT2, rASCT2, hASCT1 (panel B) and rEAAT1, rEAAT2, rEAAT3 and hEAAT5 (panel C) respectively. For hASCT2, rASCT2 and hASCT1, intracellular pipette solution contained 10 mM alanine and 130 mM NaSCN. For rEAAT1, rEAAT2, rEAAT3 and hEAAT5, intracellular solution contained 10 mM glutamate and 130 mM NaSCN. Extracellular solution was the same for all the experiments (140 mM NaCl). The voltage was 0 mV. […]
(§3) Cell culture and transfection
(§4) Human embryonic kidney 293 (HEK293, ATCC CRL -11268) cells were cultured in DMEM media supplemented with 10% (v/v) fetal bovine serum (FBS), 2 mM glutamine, 1% penicillin streptomycin solution, 1 mM sodium pyruvate and non -essential amino acids. Cells were maintained at 370C in a fully humidified atmosphere containing 5% CO2. rASCT2, hASCT2, hASCT1, EAAT1, EAAT2, EAAT3, EAAT5 and YFP complementary DNAs were each used to transiently transfect HEK293 using POLYPLUS Jet-prime transfection reagent. Cells were analyzed using electrophysiological techniques 24-40 hours after transfection.
(§5) Electrophysiological techniques
(§6) Electrophysiological experiments were performed as described previously 1,2. Stock solutions of inhibitor was prepared in dimethyl sulfoxide (DMSO) up to 100 mM.
(§7) Dilutions to working concentrations were made using external buffer. The highest […]
(§8) cells. For rASCT2, hASCT2 and hASCT1, external buffer contained 140 mM NaCl, 2 mM MgCl2, 2 mM CaCl2, and 10 mM HEPES, pH 7.40 while internal pipette solution comprised of 130 mM NaSCN, 2 mM MgCl2, 10 mM EGTA, 10 mM HEPES and 10mM alanine, pH 7.40. For specificity experiments with EAAT1, EAAT2, EAAC1 and EAAT5, internal solution contained 10 mM glutamate instead of alanine. Compounds were applied to HEK293 cells expressing DNA of interest suspended from a current recording electrode in whole cell configuration44 through a rapid solution exchange device described previously45. Cells are immersed in external buffer bath used to dissolve the inhibitors. The open pipette resistance was between 3 and 6 MΩ. Series resistance was not compensated in these experiments due to relatively small currents. Current s traces were recorded using an Adams and List EPC7 amplifier and digitized using a Molecular Devices Digidata A/D converter.
(§9) Data analysis was performed as described previously 46. Linear and nonlinear curve fitting of the experimental data were analyzed using MicroCal Origin software. Linear plots were fitted using the general equation (y = a + bx) obtaining adjusted R 2 and Pearson’s r values. Nonlinear dose–response relationships were fitted with a Michaelis – Menten-like equation to obtain apparent Ki values in the absence of substrate. For competition studies, equation I = I1 + I2 [Inh]/(Ki + [Inh]) was used for fitting, where I1 is the alanine induced current without the inhibitor, and I2 is the maximum current in the presence of saturating inhibitor concentration, [Inh]max 1,2. At least five experiments were performed for each compound. Unless stated otherwise, the error bars in all our graphs represent mean ± SD .
(§10) ASCT2 expression and purification
(§11) Human ASCT2 (hASCT2) was produced in Pichia pastoris X-33 strain (Invitrogen) in fermentor26 and purified using DDM and CHS (Anatrace) and 1 mM L-glutamine (Merck) to maintain protein stability 27. Membranes representing ~1.5 g cells were solubilized in buffer A (25 mM Tris-HCl, pH 7.4, 300 mM NaCl, 10% (vol/vol) glycerol, 1 mM L - glutamine, 1% DDM and 0.1% CHS) for 1 h at 4 °C; ultracentrifuged (30 min, 442,907 × […]

hEAAT5 = target: T2, hEAAT5 (Homo sapiens, UniProt O00341); details: for Binding affinity Ki / Ki: HEK293 cells, 0 mV, 10 mM glutamate and 130 mM NaSCN internal, No current = no outward current up to highest concentration tested (§ 20-50, || 100-400, # 1500-2500 µM); for Ki: read-out: Binding affinity Ki
T2 construct: expressed in transfected cells; host or cells: HEK293 (ATCC CRL-11268), transient transfection
T2 sequence (O00341 whole entry): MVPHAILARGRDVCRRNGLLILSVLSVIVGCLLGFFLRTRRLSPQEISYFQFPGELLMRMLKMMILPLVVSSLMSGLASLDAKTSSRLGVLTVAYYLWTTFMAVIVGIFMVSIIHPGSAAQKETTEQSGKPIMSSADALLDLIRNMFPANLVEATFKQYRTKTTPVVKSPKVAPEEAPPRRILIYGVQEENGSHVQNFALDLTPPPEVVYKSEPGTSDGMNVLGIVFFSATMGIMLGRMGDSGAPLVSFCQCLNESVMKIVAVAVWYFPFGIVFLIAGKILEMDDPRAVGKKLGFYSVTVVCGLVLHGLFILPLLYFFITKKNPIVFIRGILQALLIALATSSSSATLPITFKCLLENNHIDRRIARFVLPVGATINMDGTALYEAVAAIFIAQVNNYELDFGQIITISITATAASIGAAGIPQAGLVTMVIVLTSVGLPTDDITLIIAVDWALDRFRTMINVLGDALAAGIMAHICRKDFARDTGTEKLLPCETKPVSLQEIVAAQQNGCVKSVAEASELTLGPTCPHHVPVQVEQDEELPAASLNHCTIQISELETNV
Experimental: as §1, §2, §3, §4, §5, §6, §7, §8, §9, §10, §11

rEAAT1 = target: T3, rEAAT1 (Rattus norvegicus, UniProt P24942); details: 0 mV, 10 mM glutamate and 130 mM NaSCN internal, No current = no outward current up to highest concentration tested (§ 20-50, || 100-400, # 1500-2500 µM); for Ki: read-out: Binding affinity Ki
T3 construct: expressed in transfected cells; host or cells: HEK293 (ATCC CRL-11268), transient transfection
T3 sequence (P24942 1-543): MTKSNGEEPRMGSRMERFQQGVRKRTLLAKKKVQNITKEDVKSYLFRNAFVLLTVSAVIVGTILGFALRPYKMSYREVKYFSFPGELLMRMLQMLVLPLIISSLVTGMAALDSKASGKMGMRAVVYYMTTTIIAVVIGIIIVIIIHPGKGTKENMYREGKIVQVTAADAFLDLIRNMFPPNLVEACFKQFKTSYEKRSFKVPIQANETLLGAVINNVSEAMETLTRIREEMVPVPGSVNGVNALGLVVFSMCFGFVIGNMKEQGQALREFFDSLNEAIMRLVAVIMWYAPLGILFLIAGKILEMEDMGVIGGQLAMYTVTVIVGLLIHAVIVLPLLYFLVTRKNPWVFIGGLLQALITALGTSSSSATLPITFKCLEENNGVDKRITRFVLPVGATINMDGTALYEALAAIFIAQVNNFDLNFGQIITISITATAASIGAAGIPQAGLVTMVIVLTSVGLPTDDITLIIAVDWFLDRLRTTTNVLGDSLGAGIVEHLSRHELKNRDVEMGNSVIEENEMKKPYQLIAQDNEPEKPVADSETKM
Experimental: as §1, §2, §3, §4, §5, §6, §7, §8, §9, §10, §11

Binding affinity Ki (rEAAT2) | Binding affinity Ki (hEAAT5) | Binding affinity Ki (rEAAT1) | Ki (rEAAT2) | Ki (hEAAT5) | Ki (rEAAT1) | SMILES | Ki for hEAAT5 higher than for rASCT2 (hEAAT5; hEAAT5 versus rASCT2)
– | – | – | 11 ± 1.25 µM | 21.3 ± 3.15 µM | 9.57 ± 1.61 µM | N[C@@H](COC(=O)c1ccc(NC(=O)c2ccccc2)cc1)C(=O)O [ERA-21] | –
No current | No current | No current | – | – | – | N[C@@H](COC(=O)c1cccnc1)C(=O)O [ERA-28] | –
No current | No current | No current | – | – | – | O=C(O[C@@H]1CN[C@H](C(=O)O)C1)c1ccc(OCc2ccccc2)cc1 [ERA-31] | –
No current | No current | No current | – | – | – | O=C(O[C@H]1CN[C@H](C(=O)O)C1)c1ccc(C(=O)c2ccccc2)cc1 [ERA-35] | –
– | No current | – | 164 ± 47 µM | – | 195 ± 48.4 µM | N[C@@H](COC(=O)c1ccccc1)C(=O)O [ERA-25] | –

The remaining lines, values behind:

SMILES | Binding affinity Ki (rEAAT2) | Binding affinity Ki (hEAAT5) | Binding affinity Ki (rEAAT1) | Ki (rEAAT2) | Ki (hEAAT5) | Ki (rEAAT1) | Ki for hEAAT5 higher than for rASCT2 (hEAAT5; hEAAT5 versus rASCT2)
O=C(O[C@@H]1CN[C@H](C(=O)O)C1)C(c1ccccc1)c1ccccc1 [ERA-29] | No current | No current | No current | – | – | – | –
O=C(O[C@@H]1CN[C@H](C(=O)O)C1)c1ccc(-c2ccccc2)cc1 [Lc-BPE, L-cis hydroxyproline biphenyl ester] | – | – | – | – | 2.22 ± 0.46 µM | – | ~3 fold
O=C(Nc1ccc(C(=O)O[C@@H]2CN[C@H](C(=O)O)C2)cc1)c1ccc(C(F)(F)F)cc1 [ERA-11] | No current | No current | – | – | – | 9.6 ± 7.5 µM | –
O=C(O[C@@H]1CN[C@H](C(=O)O)C1)c1ccc(C(O)c2ccccc2)cc1 (some centres unmarked) [ERA-9] | No current; also recorded: No inhibitory activity was detected | No current; also recorded: No inhibitory activity was detected | – | – | – | 39.5 µM | –
O=C(O[C@@H]1CN[C@H](C(=O)O)C1)c1ccc(-c2ccc(F)cc2)cc1 [ERA-4] | – | – | – | 1.29 ± 0.31 µM | 2.4 ± 0.72 µM | 0.4 ± 0.07 µM | –
O=C(O[C@@H]1CN[C@H](C(=O)O)C1)c1ccc(-c2ccc(C(F)(F)F)cc2)cc1 [ERA-5] | – | – | – | 0.97 ± 0.1 µM | 1.05 ± 0.15 µM | 1 ± 0.25 µM | –
O=C(O[C@@H]1CN[C@H](C(=O)O)C1)c1ccc(Oc2ccccc2)cc1 [ERA-16] | – | – | – | 7.72 ± 1.89 µM | 6.17 ± 1.47 µM | 8.18 ± 1.77 µM | –
O=C(O[C@@H]1CN[C@H](C(=O)O)C1)c1ccccc1-c1ccccc1 [ERA-3] | No current | No current | No current | – | – | – | –
Cc1ccccc1-c1ccc(C(=O)O[C@@H]2CN[C@H](C(=O)O)C2)cc1 [ERA-6] | – | – | – | 1.3 ± 0.13 µM | 2.5 ± 0.93 µM | 1 ± 0.11 µM | –
